The values below come from PMC9856672, “SGC-CAMKK2-1: A Chemical Probe for CAMKK2” (Cells, 2023).

One test concerns the target PIM2 (Homo sapiens, UniProt Q9P1W9). In words: PIM2 inhibition at Reaction Biology Corporation. It counts as biochemical. As to conditions: n = 1, read-out: PIM2 Enzyme IC50. On the set-up: purchased Reaction Biology Corporation.
The target in a further test is T1, SRPK1 (Homo sapiens, UniProt Q96SB4).
T1 construct: purchased Eurofins DiscoverX KINOMEscan
Kind of test: KINOMEscan 1 μM, SRPK1. In kind it is binding. The conditions noted are these: 1000 nM; Entrez SRPK1; read-out: Percent Control. The text has this:
(§1) Supplement cells-12-00287-s001.zip/File S2. KinomeScan data for the CAMKK2 probe and negative control.xlsx, sheet "SGC-CAMKK2-1" | column: Percent Control

A further test deals with T2, MUSK (Homo sapiens, UniProt O15146).
T2 construct: purchased Eurofins DiscoverX KINOMEscan
In words: KINOMEscan 1 μM, MUSK. In kind it is binding. The conditions noted are these: 1000 nM; Entrez MUSK; read-out: Percent Control.
Source text: as §1

In another test the target is T3, PRKCQ (Homo sapiens, UniProt Q04759).
T3 construct: purchased Eurofins DiscoverX KINOMEscan
Kind of test: DiscoverX KINOMEscan binding assay at 1 μM, PRKCQ. The conditions noted are these: Compound Concentration 1000 nM, read-out: Percent Control.
Source text: as §1

The target in a further test is T4, NDR1 (Homo sapiens, UniProt Q15208).
T4 construct: purchased Eurofins DiscoverX KINOMEscan
In words: KINOMEscan 1 μM, NDR1. It counts as binding. As to conditions: 1000 nM; Entrez STK38; read-out: Percent Control.
Source text: as §1

The target in a further test is T5, FAK (Homo sapiens, UniProt Q05397).
T5 construct: purchased Eurofins DiscoverX KINOMEscan
Kind of test: KINOMEscan 1 μM, FAK. It counts as binding. As to conditions: 1000 nM; Entrez PTK2; read-out: Percent Control.
Source text: as §1

The target in the next test is T6, JNK2 (Homo sapiens, UniProt P45984).
T6 construct: purchased Eurofins DiscoverX KINOMEscan
In words: KINOMEscan 1 μM, JNK2. As to conditions: 1000 nM; Entrez MAPK9; read-out: Percent Control. In kind it is binding.
Source text: as §1

The next test has as its target T7, MAP3K2 (Homo sapiens, UniProt Q9Y2U5).
T7 construct: purchased Eurofins DiscoverX KINOMEscan
Kind of test: KINOMEscan 1 μM, MAP3K2. It counts as binding. The conditions noted are these: 1000 nM; Entrez MAP3K2; read-out: Percent Control.
Source text: as §1

For a further test, the target named is T8, PLK1 (Homo sapiens, UniProt P53350).
T8 construct: purchased Eurofins DiscoverX KINOMEscan
Kind of test: DiscoverX KINOMEscan binding assay at 1 μM, PLK1. As to conditions: Compound Concentration 1000 nM, read-out: Percent Control.
Source text: as §1

The target of another test is T9, HPK1 (Homo sapiens, UniProt Q92918).
T9 construct: purchased Eurofins DiscoverX KINOMEscan
In words: KINOMEscan 1 μM, HPK1. In kind it is binding. The conditions noted are these: 1000 nM; Entrez MAP4K1; read-out: Percent Control.
Source text: as §1

Another test concerns the target T10, SRC (Homo sapiens, UniProt P12931).
T10 construct: purchased Eurofins DiscoverX KINOMEscan
In words: KINOMEscan 1 μM, SRC. It counts as binding. As to conditions: 1000 nM; Entrez SRC; read-out: Percent Control.
Source text: as §1

The next test has as its target T11, CSNK1A1 (Homo sapiens, UniProt P48729).
T11 construct: purchased Eurofins DiscoverX KINOMEscan
Kind of test: KINOMEscan 1 μM, CSNK1A1. In kind it is binding. As to conditions: 1000 nM; Entrez CSNK1A1; read-out: Percent Control.
Source text: as §1

In the next test the target is T12, ULK2 (Homo sapiens, UniProt Q8IYT8).
T12 construct: purchased Eurofins DiscoverX KINOMEscan
In words: DiscoverX KINOMEscan binding assay at 1 μM, ULK2. As to conditions: Compound Concentration 1000 nM, read-out: Percent Control.
Source text: as §1

In the next test the target is T13, MAP3K4 (Homo sapiens, UniProt Q9Y6R4).
T13 construct: purchased Eurofins DiscoverX KINOMEscan
Kind of test: KINOMEscan at 1 μM, MAP3K4. It counts as binding. The conditions noted are these: 1000 nM, read-out: Percent Control. The text has this:
(§2) Supplement cells-12-00287-s001.zip/File S2. KinomeScan data for the CAMKK2 probe and negative control.xlsx, sheet "SGC-CAMKK2-1N" | column: Percent Control

For the next test, the target named is T14, CDK5 (Homo sapiens, UniProt Q00535).
T14 construct: purchased Eurofins DiscoverX KINOMEscan
In words: KINOMEscan at 1 μM, CDK5. It counts as binding. The conditions noted are these: 1000 nM, read-out: Percent Control.
Source text: as §2

The target in another test is T15, FGFR1 (Homo sapiens, UniProt P11362).
T15 construct: purchased Eurofins DiscoverX KINOMEscan
In words: KINOMEscan binding assay at 1 μM, FGFR1. The conditions noted are these: Compound Concentration 1000 nM; read-out: Percent Control.
Source text: as §2

For a further test, the target named is T16, TYRO3 (Homo sapiens, UniProt Q06418).
T16 construct: purchased Eurofins DiscoverX KINOMEscan
In words: KINOMEscan binding assay at 1 μM, TYRO3. As to conditions: Compound Concentration 1000 nM; read-out: Percent Control.
Source text: as §2

For the next test, the target named is T17, FRK (Homo sapiens, UniProt P42685).
T17 construct: purchased Eurofins DiscoverX KINOMEscan
In words: KINOMEscan binding assay at 1 μM, FRK. The conditions noted are these: Compound Concentration 1000 nM; read-out: Percent Control.
Source text: as §2

The target in the next test is T18, ANKK1 (Homo sapiens, UniProt Q8NFD2).
T18 construct: purchased Eurofins DiscoverX KINOMEscan
In words: KINOMEscan at 1 μM, ANKK1. The conditions noted are these: 1000 nM, read-out: Percent Control. In kind it is binding.
Source text: as §2

The target in a further test is T19, RET(V804M) (Homo sapiens, UniProt P07949, V804M).
T19 construct: purchased Eurofins DiscoverX KINOMEscan
In words: KINOMEscan binding assay at 1 μM, RET(V804M). As to conditions: Compound Concentration 1000 nM; read-out: Percent Control.
Source text: as §2

The next test addresses T20, BRSK2 (Homo sapiens, UniProt Q8IWQ3).
T20 construct: purchased Eurofins DiscoverX KINOMEscan
In words: KINOMEscan at 1 μM, BRSK2. It counts as binding. The conditions noted are these: 1000 nM, read-out: Percent Control.
Source text: as §2

For a further test, the target named is T21, SNARK (Homo sapiens, UniProt Q9H093).
T21 construct: purchased Eurofins DiscoverX KINOMEscan
Kind of test: KINOMEscan at 1 μM, SNARK. In kind it is binding. As to conditions: 1000 nM, read-out: Percent Control.
Source text: as §2

In the next test the target is T22, TIE1 (Homo sapiens, UniProt P35590).
T22 construct: purchased Eurofins DiscoverX KINOMEscan
In words: KINOMEscan binding assay at 1 μM, TIE1. The conditions noted are these: Compound Concentration 1000 nM; read-out: Percent Control.
Source text: as §2

A further test addresses T23, NEK10 (Homo sapiens, UniProt Q6ZWH5).
T23 construct: purchased Eurofins DiscoverX KINOMEscan
In words: KINOMEscan at 1 μM, NEK10. In kind it is binding. The conditions noted are these: 1000 nM, read-out: Percent Control.
Source text: as §2

In another test the target is T24, SNRK (Homo sapiens, UniProt Q9NRH2).
T24 construct: purchased Eurofins DiscoverX KINOMEscan
Kind of test: KINOMEscan binding assay at 1 μM, SNRK. The conditions noted are these: Compound Concentration 1000 nM; read-out: Percent Control.
Source text: as §2

A further test addresses T25, TBK1 (Homo sapiens, UniProt Q9UHD2).
T25 construct: purchased Eurofins DiscoverX KINOMEscan
In words: KINOMEscan at 1 μM, TBK1. The conditions noted are these: 1000 nM, read-out: Percent Control. In kind it is binding.
Source text: as §2

Another test concerns the target T26, LRRK2(G2019S) (Homo sapiens, UniProt Q5S007, G2019S).
T26 construct: purchased Eurofins DiscoverX KINOMEscan
Kind of test: KINOMEscan at 1 μM, LRRK2(G2019S). In kind it is binding. As to conditions: 1000 nM, read-out: Percent Control.
Source text: as §2

In a further test the target is T27, PIK3CA(E542K) (Homo sapiens, UniProt P42336, E542K).
T27 construct: purchased Eurofins DiscoverX KINOMEscan
Kind of test: KINOMEscan at 1 μM, PIK3CA(E542K). It counts as binding. The conditions noted are these: 1000 nM, read-out: Percent Control.
Source text: as §2

A further test concerns the target T28, IRAK3 (Homo sapiens, UniProt Q9Y616).
T28 construct: purchased Eurofins DiscoverX KINOMEscan
In words: KINOMEscan at 1 μM, IRAK3. In kind it is binding. The conditions noted are these: 1000 nM, read-out: Percent Control.
Source text: as §2

For a further test, the target named is T29, FLT3(D835H) (Homo sapiens, UniProt P36888, D835H).
T29 construct: purchased Eurofins DiscoverX KINOMEscan
Kind of test: KINOMEscan at 1 μM, FLT3(D835H). It counts as binding. As to conditions: 1000 nM, read-out: Percent Control.
Source text: as §2

The next test deals with T30, KIT(A829P) (Homo sapiens, UniProt P10721, A829P).
T30 construct: purchased Eurofins DiscoverX KINOMEscan
In words: KINOMEscan at 1 μM, KIT(A829P). In kind it is binding. As to conditions: 1000 nM, read-out: Percent Control.
Source text: as §2

Another test has as its target T31, MEK1 (Homo sapiens, UniProt Q02750).
T31 construct: purchased Eurofins DiscoverX KINOMEscan
Kind of test: KINOMEscan at 1 μM, MEK1. In kind it is binding. As to conditions: 1000 nM, read-out: Percent Control.
Source text: as §2

Another test concerns the target T32, ZAP70 (Homo sapiens, UniProt P43403).
T32 construct: purchased Eurofins DiscoverX KINOMEscan
In words: KINOMEscan at 1 μM, ZAP70. The conditions noted are these: 1000 nM, read-out: Percent Control. It counts as binding.
Source text: as §2

The target in test [1] is T33, TYK2(JH1domain-catalytic) (Homo sapiens, UniProt P29597).
T33 construct: TYK2(JH1domain-catalytic); purchased Eurofins DiscoverX KINOMEscan
In words: KINOMEscan at 1 μM, TYK2(JH1domain-catalytic). In kind it is binding. The conditions noted are these: 1000 nM, read-out: Percent Control.
Source text: as §2

The target of another test is T34, DMPK (Homo sapiens, UniProt Q09013).
T34 construct: purchased Eurofins DiscoverX KINOMEscan
In words: KINOMEscan at 1 μM, DMPK. As to conditions: 1000 nM, read-out: Percent Control. In kind it is binding.
Source text: as §2

T18 sequence (Q8NFD2 whole entry): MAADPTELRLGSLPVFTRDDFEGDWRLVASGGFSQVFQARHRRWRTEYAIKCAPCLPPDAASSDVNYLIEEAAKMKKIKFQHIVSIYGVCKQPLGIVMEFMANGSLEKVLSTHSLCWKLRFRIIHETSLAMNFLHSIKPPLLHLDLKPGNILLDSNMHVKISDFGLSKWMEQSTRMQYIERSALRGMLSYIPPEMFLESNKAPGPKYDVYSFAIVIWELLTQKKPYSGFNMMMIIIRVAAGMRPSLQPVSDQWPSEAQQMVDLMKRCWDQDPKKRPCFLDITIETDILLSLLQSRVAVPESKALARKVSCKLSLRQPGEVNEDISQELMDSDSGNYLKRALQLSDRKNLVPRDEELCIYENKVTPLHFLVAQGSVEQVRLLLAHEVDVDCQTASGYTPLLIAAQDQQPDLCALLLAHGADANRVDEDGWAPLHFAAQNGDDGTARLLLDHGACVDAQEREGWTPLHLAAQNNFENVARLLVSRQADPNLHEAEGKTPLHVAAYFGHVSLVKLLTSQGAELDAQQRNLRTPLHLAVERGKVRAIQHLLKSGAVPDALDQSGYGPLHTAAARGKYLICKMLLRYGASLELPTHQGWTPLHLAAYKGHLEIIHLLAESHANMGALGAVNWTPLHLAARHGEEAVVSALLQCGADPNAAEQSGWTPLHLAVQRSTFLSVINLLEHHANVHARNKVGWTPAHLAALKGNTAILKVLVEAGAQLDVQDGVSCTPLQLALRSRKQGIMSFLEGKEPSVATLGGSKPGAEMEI
T8 sequence (P53350 whole entry): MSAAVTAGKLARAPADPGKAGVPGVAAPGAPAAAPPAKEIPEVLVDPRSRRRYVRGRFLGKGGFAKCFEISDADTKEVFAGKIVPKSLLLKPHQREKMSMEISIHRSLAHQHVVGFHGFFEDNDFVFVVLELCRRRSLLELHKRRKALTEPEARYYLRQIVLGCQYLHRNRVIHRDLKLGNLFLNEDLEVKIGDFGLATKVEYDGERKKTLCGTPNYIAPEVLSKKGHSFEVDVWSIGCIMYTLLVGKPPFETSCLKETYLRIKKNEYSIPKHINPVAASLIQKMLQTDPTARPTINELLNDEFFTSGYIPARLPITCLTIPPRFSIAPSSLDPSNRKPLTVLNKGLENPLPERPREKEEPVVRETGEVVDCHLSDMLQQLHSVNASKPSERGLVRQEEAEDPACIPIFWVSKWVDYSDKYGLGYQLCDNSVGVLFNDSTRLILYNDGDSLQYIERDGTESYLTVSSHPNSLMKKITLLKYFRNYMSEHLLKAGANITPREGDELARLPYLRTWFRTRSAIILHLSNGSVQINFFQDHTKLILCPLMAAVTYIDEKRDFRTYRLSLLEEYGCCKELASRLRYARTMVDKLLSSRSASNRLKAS
T3 sequence (Q04759 whole entry): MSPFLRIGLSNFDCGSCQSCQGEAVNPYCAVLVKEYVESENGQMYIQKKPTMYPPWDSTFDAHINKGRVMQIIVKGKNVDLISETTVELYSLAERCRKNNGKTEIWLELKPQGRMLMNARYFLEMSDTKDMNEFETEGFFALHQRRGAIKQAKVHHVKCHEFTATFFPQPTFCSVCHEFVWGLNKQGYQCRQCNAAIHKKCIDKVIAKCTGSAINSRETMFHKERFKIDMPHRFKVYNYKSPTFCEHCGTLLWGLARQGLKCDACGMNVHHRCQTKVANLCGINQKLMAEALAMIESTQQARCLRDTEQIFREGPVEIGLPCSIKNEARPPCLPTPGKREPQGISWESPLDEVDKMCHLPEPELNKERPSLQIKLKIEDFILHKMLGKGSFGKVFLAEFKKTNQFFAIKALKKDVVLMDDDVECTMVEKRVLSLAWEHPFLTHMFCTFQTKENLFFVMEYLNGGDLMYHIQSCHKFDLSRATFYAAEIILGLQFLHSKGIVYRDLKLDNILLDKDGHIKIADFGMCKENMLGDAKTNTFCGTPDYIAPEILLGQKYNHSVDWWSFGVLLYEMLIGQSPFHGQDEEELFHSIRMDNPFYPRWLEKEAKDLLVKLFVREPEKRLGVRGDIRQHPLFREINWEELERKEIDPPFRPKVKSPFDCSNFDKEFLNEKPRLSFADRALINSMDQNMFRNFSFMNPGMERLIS
T1 sequence (Q96SB4 whole entry): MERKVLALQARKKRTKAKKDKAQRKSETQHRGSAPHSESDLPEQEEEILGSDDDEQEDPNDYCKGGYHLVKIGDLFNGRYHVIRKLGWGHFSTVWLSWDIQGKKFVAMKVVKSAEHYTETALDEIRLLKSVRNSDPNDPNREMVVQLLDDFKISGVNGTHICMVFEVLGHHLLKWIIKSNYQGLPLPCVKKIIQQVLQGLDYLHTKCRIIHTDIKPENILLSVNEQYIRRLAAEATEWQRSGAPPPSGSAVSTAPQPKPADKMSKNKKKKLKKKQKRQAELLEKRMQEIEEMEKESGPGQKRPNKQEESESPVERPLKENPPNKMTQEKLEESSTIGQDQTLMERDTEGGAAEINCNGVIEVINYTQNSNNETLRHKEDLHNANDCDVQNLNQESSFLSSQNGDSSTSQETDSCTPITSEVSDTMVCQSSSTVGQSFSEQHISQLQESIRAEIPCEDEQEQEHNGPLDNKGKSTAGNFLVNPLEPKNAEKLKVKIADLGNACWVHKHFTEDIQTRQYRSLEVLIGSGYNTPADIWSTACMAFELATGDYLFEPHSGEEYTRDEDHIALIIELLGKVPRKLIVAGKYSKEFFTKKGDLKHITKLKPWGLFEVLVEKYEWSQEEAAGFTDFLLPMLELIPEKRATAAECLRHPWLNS
T19 sequence (P07949 29-1114 V804M): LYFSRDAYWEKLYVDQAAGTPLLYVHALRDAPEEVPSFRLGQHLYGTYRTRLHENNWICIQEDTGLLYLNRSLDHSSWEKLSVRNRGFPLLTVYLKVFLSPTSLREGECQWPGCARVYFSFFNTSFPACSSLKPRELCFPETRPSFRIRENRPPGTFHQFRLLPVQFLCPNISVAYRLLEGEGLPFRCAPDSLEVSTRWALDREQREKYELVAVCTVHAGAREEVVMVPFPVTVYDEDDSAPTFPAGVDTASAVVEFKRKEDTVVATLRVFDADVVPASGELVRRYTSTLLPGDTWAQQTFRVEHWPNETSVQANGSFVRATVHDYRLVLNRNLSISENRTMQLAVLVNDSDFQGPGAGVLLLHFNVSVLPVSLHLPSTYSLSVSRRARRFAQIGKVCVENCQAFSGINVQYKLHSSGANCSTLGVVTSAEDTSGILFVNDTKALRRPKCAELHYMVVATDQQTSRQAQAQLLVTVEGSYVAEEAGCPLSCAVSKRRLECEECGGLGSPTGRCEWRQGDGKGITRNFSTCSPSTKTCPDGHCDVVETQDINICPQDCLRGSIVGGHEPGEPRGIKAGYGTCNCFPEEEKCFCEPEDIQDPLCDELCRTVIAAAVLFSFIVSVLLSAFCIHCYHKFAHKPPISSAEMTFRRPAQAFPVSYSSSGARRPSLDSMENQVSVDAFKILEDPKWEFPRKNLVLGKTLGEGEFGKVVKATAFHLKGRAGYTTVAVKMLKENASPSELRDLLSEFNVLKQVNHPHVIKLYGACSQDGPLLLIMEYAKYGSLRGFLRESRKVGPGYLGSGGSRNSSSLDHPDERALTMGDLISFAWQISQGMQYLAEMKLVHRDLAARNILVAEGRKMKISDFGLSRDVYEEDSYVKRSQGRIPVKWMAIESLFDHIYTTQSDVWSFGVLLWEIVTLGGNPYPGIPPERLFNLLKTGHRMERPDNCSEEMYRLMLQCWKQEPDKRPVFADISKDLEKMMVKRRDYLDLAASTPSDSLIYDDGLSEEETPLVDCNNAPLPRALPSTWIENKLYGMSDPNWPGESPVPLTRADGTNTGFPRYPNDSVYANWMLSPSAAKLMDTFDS
T20 sequence (Q8IWQ3 whole entry): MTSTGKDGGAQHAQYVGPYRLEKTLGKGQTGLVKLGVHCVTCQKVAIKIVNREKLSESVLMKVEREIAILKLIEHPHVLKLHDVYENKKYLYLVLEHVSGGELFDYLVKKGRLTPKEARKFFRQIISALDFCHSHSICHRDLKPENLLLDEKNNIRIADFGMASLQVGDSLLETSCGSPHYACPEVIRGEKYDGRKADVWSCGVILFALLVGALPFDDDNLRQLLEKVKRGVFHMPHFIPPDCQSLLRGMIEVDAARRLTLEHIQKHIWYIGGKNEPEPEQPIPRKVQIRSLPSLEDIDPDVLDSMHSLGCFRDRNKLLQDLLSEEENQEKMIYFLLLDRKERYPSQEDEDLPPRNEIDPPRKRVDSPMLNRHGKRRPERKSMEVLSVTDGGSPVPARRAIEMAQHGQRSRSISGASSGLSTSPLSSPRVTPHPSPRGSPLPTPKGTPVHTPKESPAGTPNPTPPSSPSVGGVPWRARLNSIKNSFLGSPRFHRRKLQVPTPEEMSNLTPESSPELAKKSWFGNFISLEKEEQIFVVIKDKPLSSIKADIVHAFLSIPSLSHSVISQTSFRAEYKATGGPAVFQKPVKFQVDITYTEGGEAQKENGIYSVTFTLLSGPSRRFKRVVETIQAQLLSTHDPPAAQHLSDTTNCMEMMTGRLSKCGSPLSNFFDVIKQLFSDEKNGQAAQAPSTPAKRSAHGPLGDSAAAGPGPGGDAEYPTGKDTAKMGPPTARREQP
T6 sequence (P45984 whole entry): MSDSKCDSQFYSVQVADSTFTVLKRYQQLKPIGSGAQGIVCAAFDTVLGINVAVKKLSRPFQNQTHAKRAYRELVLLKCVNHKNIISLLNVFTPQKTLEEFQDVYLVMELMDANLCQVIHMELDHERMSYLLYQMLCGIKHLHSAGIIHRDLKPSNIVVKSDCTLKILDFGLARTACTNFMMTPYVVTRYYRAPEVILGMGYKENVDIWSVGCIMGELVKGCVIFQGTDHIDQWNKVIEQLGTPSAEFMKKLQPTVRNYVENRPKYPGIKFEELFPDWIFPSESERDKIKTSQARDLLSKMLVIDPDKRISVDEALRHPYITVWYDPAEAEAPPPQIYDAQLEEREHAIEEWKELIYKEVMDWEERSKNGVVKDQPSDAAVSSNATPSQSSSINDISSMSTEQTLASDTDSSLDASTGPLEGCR

On to `O=C(O)c1ccc(-c2coc3ncc(-c4ccccc4)cc23)cc1Cl` [Compound 7], for which, on PIM2, the IC50 amounted to 1.9 µM.

As to `Cc1cccc(-c2cnc3occ(-c4ccc(C(=O)O)c(C5CCCC5)c4)c3c2)c1` [SGC-CAMKK2-1 (YL-36)], the remaining binding at 1 µM on SRPK1 amounted to 80%; at MUSK, 84%; on PRKCQ, 100%; on NDR1 it was 100%; on FAK, 92%; on JNK2, 100%. Further, the remaining binding at 1 µM worked out at 100% on MAP3K2; 100% at PLK1; 100% on HPK1; 96% on SRC; 78% at CSNK1A1; 100% on ULK2.

On to `O=C(O)c1ccc(-c2coc3ncc(-c4ccccc4)cc23)cc1Cl` [SGC-CAMKK2-1N (UNC-YL-83)], for which the remaining binding at 1 µM at MAP3K4 came out at 68%; at CDK5, 100%; at FGFR1 it was 100%; on TYRO3, 100%; on FRK, 100%; on ANKK1, 78%. For the same compound, the remaining binding at 1 µM came out at 100% on RET(V804M); 100% at BRSK2; 90% at SNARK; 100% at TIE1; 82% on NEK10; 100% at SNRK. The remaining binding at 1 µM came out at 64% on TBK1; 90% on LRRK2(G2019S); 81% on PIK3CA(E542K); 82% at IRAK3; 88% at FLT3(D835H); 86% at KIT(A829P). The remaining binding at 1 µM worked out at 93% on MEK1, 85% on ZAP70, 89% in [1] and 72% on DMPK.
